Measurements: patent US20070191364A1, “AMINOPIPERIDINE DERIVATIVES, PREPARATION THEREOF AND THERAPEUTIC USE THEREOF” (SANOFI-AVENTIS, priority 2004, published 2007)
Counter-ions that a name gives are not always drawn.

Columns and labels:
human MC4 receptor [1] = target: T1, human MC4 receptor (Homo sapiens, UniProt P32245); assay: Affinity assay: displacement of [125I]-[Nle4,D-Phe7]-α-MSH binding to membranes of CHO-K1 cells (SPA); conditions: radioligand displacement, 100 pM [125I]-NDP-α-MSH, 6 h; read-out: IC50 with respect to the MC4 receptor
T1 construct: host or cells: CHO-K1
Method: This affinity assay is carried out by measuring the binding of [^125I]-[Nle^4-D-Phe^7]-[…]-MSH to cell membranes. The displacement of this radioligand is used to identify inhibitors of the specific binding to recombinant melanocortin receptors.
For this assay, membranes prepared from CHO-K1 cells expressing the human MC4 receptor at high density (Euroscreen) or membranes, that were purchased (Perkin Elmer Life Sciences, Receptor Biology), of HEK-293 cells expressing hMC3 receptors were used. CHO-K1 cells transfected with the hMC4 receptor gene (Euroscreen) are seeded into DMEM/Nutrient Mix F12 culture medium containing 10% foetal calf serum (Biowhittaker), 1% sodium pyruvate, 1% L-glutamine, 1% non-essential amino acids, 0.4 mg/ml geneticin (G418) and 0.5% PenStrep, these products being provided by Gibco/BR1, except the calf serum. At 80% confluency, the cells are scraped off and the cell pellets are frozen at −80° C. […]
[^125I]-[Nle^4, D-Phe^7]-[…]-MSH is diluted in binding buffer+0.2% BSA. […] The nonspecific binding is defined by NDP-[…]MSH at 10^−7 M. The total binding is measured by the number of counts per minute in the presence of the radioligand alone. […]

human MC3 receptor = target: T2, human MC3 receptor (Homo sapiens, UniProt P41968); assay: Functional agonist assay: cAMP formation in CHO(dhfr-) cells; format: cell-based; conditions: 1 hour incubation, read-out: EC50 with respect to the MC3 receptor
T2 construct: expressed in transfected cells; host or cells: CHO(dhfr-)
Method: (§1) A functional assay is used to differentiate between the agonist activity and the antagonist activity. For this, the formation of cyclic adenosine monophosphate (cAMP) generated by activation of the MC3 receptor or of the MC4 receptor is assayed.
CHO(dhfr-) cells expressing the human MC3 receptor are seeded into MEM Eagle culture medium (Sigma) containing 10% of dialysed calf serum, 1% L-glutamine, 1% sodium pyruvate, 20 mg/500 ml L-proline, 0.3 mg/ml Geneticin and 0.5% PenStrep, these products being provided by Gibco/BR1, except for the dialysed calf serum (Cambrex) and the L-proline (Sigma).
(§2) The compounds to be tested (diluted in 10% DMSO), in an amount of 10 μl at a concentration of 10 times the final concentration, are added to the plates of cells (final volume=100 μl/well). After incubation for 1 hour (37° C., 5% CO2), the amount of cAMP is assayed using Tropix kits (Appelera) according to the supplier's documentation. The intrinsic activity of the compounds is calculated by comparing the stimulation of cAMP by these compounds to the stimulation induced by 30 nM of NDP[…]MSH (maximum of 100%). The EC50 value for the compounds corresponds to the concentration which produces 50% of the maximum stimulation obtained with this compound.

human MC4 receptor [2] = target: T1, human MC4 receptor; assay: Functional agonist assay: cAMP formation in CHO-K1 cells; format: cell-based; conditions: 1 hour incubation, read-out: EC50 with respect to the MC4 receptor
Method: as §1
CHO-K1 cells, expressing the human MC4 receptor at a moderate density (Euroscreen), are seeded into DMEM/Nutrient Mix F12 culture medium (Gibco/BR1) containing 10% of foetal calf serum, 0.5% sodium pyruvate, 1% L-glutamine, 1% non-essential amino acids, 200 mg/l hygromycin B and 0.5% PenStrep, these products being provided by Gibco/BR1, except the calf serum (Biowhittaker) and hygromycin B (Sigma).
as §2

T1 sequence (P32245 whole entry): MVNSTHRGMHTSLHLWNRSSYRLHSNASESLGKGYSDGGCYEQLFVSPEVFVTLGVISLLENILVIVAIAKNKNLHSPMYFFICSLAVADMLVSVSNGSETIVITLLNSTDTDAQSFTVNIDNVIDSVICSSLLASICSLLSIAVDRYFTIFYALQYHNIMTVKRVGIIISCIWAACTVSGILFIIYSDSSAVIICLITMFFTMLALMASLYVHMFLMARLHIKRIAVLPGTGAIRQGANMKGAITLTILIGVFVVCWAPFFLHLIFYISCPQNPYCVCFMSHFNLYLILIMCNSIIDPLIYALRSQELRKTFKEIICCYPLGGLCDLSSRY
T2 sequence (P41968 whole entry): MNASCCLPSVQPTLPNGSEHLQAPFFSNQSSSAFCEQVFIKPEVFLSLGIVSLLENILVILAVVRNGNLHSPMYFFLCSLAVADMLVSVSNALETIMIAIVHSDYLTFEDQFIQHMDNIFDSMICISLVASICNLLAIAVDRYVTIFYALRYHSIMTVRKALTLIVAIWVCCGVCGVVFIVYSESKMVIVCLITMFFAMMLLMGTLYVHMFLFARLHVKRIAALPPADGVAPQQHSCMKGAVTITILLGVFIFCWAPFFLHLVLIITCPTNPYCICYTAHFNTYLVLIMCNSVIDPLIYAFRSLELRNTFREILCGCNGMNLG

| melting point [°C] | IC50 (human MC4 receptor [1]) [nM] | EC50 (human MC3 receptor) [nM] | EC50 (human MC4 receptor [2]) [nM] | SMILES |
| --- | --- | --- | --- | --- |
| > 220 |  |  |  | CCN(CC)C(=O)N(C1CCCCC1)C1CCN(C(=O)[C@@H](Cc2ccc(Cl)cc2)NC2CCNCC2)CC1 (as salt: HCl) [Compound 1, N-[1-(4-chloro-N-piperidin-4-yl-D-phenylalanyl)piperidin-4-yl]-N-cyclohexyl-N′,N′-diethylurea] |
| 195 |  |  |  | CCN(CC)C(=O)N(C1CCCCC1)C1CCN(C(=O)[C@@H](Cc2ccc(Cl)cc2)NC2CCC(N)CC2)CC1 (stereo partly drawn) (as salt: HCl) [Compound 2, N-{1-[N-(4-aminocyclohexyl)-4-chloro-D-phenylalanyl]piperidin-4-yl}-N-cyclohexyl-N′,N′-diethylurea hydrochloride] |
|  | 300 | 370 | 30 | CCN(CC)C(=O)N(C1CCCCC1)C1CCN(C(=O)[C@@H](Cc2ccc(Cl)cc2)NC2CCC(N)CC2)CC1 (stereo partly drawn) [Compound 2, N-{1-[N-(4-aminocyclohexyl)-4-chloro-D-phenylalanyl]piperidin-4-yl}-N-cyclohexyl-N′,N′-diethylurea hydrochloride] |
|  |  | 590 | 80 | CCN(CC)C(=O)N(C1CCCCC1)C1CCN(C(=O)[C@@H](Cc2ccc(Cl)cc2)NC2CCNCC2)CC1 [Compound 1, N-[1-(4-chloro-N-piperidin-4-yl-D-phenylalanyl)piperidin-4-yl]-N-cyclohexyl-N′,N′-diethylurea] |
